Experimental data published in patent US20210318335A1, “BIOMARKERS, COMPOSITIONS, AND METHODS FOR DIAGNOSING AND TREATING SUBJECTS EXPOSED TO PROTEIN/HEPARIN COMPLEXES” (DUKE UNIVERSITY, priority 2018, published 2021).

Tests used:
[1] = system: complement activation by PF4/heparin complexes; test: Antigen-C3c capture ELISA assay: complement activation by PF4/heparin in plasma; type: biochemical, human; details: for effect of chelator on complement activation by PF4/heparin: 10 mM added to healthy donor plasma prior to PF4/heparin
Experimental: Antigen-C3c capture ELISA assay and Specificity ELISA: Antigen-specific monoclonal antibodies (mouse anti human PF4/heparin; KKO or mouse anti-protamine/heparin; ADA at 2 μg/mL) were incubated overnight on a microtiter plate (in phosphate buffered saline, PBS) followed by washing and blocking with 1% bovine serum albumin (BSA) in PBS for 2 hours. […] Unless specified antigen concentrations were 25 μg/mL (PF4) and 0.25 U/mL (heparin) for KKO coated plates and 125 μg/mL (PRT) and 6 U/mL (heparin) for ADA coated plates. Next, plasma containing antigen fixed by complement activation fragments was added to the capture plate for 1 hr followed by serial washes. Complement-coated antigen was detected using a biotinylated anti-C3c antibody (recognizes C3 and all C3c-containing fragments of C3, including iC3b; Quidel Corporation, San Diego, Calif.) followed by colorimetric detection as previously described. […] IgM studies: Goat anti-human IgM (μ-chain specific) agarose beads were used to deplete IgM from plasma. Anti-IgM or control agarose beads were incubated with plasma and depleted plasma supernatant was analyzed in the antigen-C3c capture assay described above.

[2] = system: B cells; test: Flow cytometry of whole blood: binding of PF4/heparin, C3c and IgM to B cells; type: cell-based, human; details: whole blood incubated with PF4 25 μg/mL + heparin 0.25 U/mL; excess heparin wash
Experimental: Flow cytometry studies: Flow-based studies of antigen, complement, or IgM binding to B cells were performed as described previously (Khandelwal S, et al. (2016) Blood, 128(14):1789-1799). Patient samples were processed without addition of exogenous antigen. Cells were analyzed using a BD FACS Canto Flow cytometer (BD Biosciences, Franklin Lakes, N.J.). Signals from a minimum of 10,000 cells were acquired from each sample. Analyses were performed using FCS express software (Version 5 Flow Research Edition; De Novo Software).
To examine if IgM co-localizes with PF4/heparin antigen and complement on B cells, surface IgM on B cells before and after addition of antigen were examined.

O=C(O)CN(CCN(CC(=O)O)CC(=O)O)CC(=O)O [EDTA, ethylenediaminetetraacetic acid]
effect of chelator on complement activation by PF4/heparin [1]: eliminated complement activation

[Cl-].[Cl-].[Mg+2] [Mg^2+, Magnesium chloride]
effect of Mg2+ supplementation on complement activation by PF4/heparin ([1]; EGTA-treated plasma (10 mM EGTA), MgCl2 10 mM): did not rescue complement activation

O=C(O)CN(CCOCCOCCN(CC(=O)O)CC(=O)O)CC(=O)O [EGTA, ethylene glycol-bis (β-aminoethyl ether)-N,N,N′,N′-tetraacetic acid]
effect of chelator on complement activation by PF4/heparin [1]: eliminated complement activation

heparin
effect of excess heparin on PF4/heparin and IgM fluorescence on B cells [2]: reduced PF4/heparin and IgM fluorescence to baseline

B1: C1 esterase inhibitor: C1-inhibitor, classical pathway complement inhibitor added to plasma at 10 and 20 IU/mL (protein, UniProt P05155 23-500, looked up)
Plasma protease C1 inhibitor: NPNATSSSSQDPESLQDRGEGKVATTVISKMLFVEPILEVSSLPTTNSTTNSATKITANTTDEPTTQPTTEPTTQPTIQPTQPTTQLPTDSPTQPTTGSFCPGPVTLCSDLESHSTEAVLGDALVDFSLKLYHAFSAMKKVETNMAFSPFSIASLLTQVLLGAGENTKTNLESILSYPKDFTCVHQALKGFTTKGVTSVSQIFHSPDLAIRDTFVNASRTLYSSSPRVLSNNSDANLELINTWVAKNTNNKISRLLDSLPSDTRLVLLNAIYLSAKWKTTFDPKKTRMEPFHFKNSVIKVPMMNSKKYPVAHFIDQTLKAKVGQLQLSHNLSLVILVPQNLKHRLEDMEQALSPSVFKAIMEKLEMSKFQPTLLTLPRIKVTTSQDMLSIMEKLEFFDFSYDLNLCGLTEDPDLQVSAMQHQTVLELTETGVEAAAASAISVARTLLVFEVQQPFLFVLWDQQHKFPVFMGRVYDPRA
effect of C1-inhibitor on complement activation by PF4/heparin ([1]; 10 and 20 IU/mL, healthy donor plasma pre-incubated before PF4/heparin): complement activation was reduced
